# Assay results published in ChEMBL document CHEMBL4842364 (J Med Chem, 2021).
# How the values were obtained:
# Wee1-like protein kinase = Wee1-like protein kinase (Homo sapiens, UniProt P30291)
# Description: Displacement of Alexa Fluor labelled kinase tracer178 from WEE1 (unknown origin) incubated for 60 mins by FRET assay
# [1] = biological target: Serine/threonine-protein kinase PLK1 (Homo sapiens, UniProt P53350); experiment: Inhibition of PLK1 (unknown origin)
# [2] = biological target: Tyrosine-protein kinase Lck (Homo sapiens) (UniProt P06239); experiment: Inhibition of LCK (unknown origin) at 1 uM relative to control
# Chain of Tyrosine-protein kinase Lck (Homo sapiens) (P06239 2-509 limits assumed): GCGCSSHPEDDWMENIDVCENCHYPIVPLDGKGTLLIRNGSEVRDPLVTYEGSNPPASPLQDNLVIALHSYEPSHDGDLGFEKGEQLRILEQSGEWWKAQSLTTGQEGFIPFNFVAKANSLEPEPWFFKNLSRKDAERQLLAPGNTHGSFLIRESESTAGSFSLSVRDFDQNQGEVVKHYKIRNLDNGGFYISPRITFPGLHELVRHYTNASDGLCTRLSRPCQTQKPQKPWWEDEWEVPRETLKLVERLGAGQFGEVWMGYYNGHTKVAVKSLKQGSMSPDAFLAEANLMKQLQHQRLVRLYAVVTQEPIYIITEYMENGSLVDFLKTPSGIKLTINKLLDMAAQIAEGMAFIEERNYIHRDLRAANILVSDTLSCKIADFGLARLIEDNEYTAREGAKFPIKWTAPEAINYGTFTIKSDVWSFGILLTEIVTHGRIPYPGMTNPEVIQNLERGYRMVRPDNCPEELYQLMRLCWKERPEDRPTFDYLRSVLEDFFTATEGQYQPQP
# [3] = Permeability of the compound across basolateral to apical side in human Caco-2 cells; assay type: ADME, cell-based; conditions: read-out: permeability
# [4] = Intrinsic clearance in human microsomes; assay type: ADME, Microsome
# [5] = biological target: Epidermal growth factor receptor (Homo sapiens, UniProt P00533, 747-749DEL/A750P); experiment: Inhibition of EGFR d747-749/A750P mutant (unknown origin)
# Chain of Epidermal growth factor receptor (P00533 whole entry, looked up, stated change not applied): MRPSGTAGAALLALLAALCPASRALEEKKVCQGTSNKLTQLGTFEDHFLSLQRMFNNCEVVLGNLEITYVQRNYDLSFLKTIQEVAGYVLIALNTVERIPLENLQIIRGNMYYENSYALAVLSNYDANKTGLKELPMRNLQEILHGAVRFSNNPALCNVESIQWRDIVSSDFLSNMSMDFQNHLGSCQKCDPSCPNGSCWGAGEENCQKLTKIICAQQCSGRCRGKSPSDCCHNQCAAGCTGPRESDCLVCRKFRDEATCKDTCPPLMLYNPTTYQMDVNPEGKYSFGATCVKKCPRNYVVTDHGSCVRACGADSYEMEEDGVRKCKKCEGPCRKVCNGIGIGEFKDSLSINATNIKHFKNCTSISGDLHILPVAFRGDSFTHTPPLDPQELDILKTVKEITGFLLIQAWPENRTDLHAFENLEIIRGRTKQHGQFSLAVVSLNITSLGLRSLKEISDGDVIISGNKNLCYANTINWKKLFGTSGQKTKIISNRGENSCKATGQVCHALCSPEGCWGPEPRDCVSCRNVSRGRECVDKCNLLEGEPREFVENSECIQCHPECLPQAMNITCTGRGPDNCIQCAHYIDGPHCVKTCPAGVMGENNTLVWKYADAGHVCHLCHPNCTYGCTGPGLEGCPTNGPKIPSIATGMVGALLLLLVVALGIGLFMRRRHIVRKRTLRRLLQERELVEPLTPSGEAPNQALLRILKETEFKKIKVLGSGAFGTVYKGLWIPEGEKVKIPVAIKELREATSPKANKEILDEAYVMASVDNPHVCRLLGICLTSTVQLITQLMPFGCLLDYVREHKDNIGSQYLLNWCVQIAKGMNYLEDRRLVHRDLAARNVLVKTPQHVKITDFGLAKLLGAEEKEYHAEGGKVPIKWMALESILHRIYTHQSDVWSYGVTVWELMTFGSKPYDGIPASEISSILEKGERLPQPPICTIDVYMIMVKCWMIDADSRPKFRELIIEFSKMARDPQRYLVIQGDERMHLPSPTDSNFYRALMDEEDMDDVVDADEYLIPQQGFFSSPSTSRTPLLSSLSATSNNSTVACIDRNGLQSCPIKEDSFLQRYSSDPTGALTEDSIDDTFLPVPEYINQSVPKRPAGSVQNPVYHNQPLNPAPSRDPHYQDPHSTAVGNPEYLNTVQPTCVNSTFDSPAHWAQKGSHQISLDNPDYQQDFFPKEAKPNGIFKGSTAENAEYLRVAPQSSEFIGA
# [6] = biological target: T1, Mitogen-activated protein kinase kinase kinase 3 (Homo sapiens) (UniProt Q99759); experiment: Inhibition of MAP3K3 (unknown origin) at 1 uM relative to control
# T1 sequence (whole entry): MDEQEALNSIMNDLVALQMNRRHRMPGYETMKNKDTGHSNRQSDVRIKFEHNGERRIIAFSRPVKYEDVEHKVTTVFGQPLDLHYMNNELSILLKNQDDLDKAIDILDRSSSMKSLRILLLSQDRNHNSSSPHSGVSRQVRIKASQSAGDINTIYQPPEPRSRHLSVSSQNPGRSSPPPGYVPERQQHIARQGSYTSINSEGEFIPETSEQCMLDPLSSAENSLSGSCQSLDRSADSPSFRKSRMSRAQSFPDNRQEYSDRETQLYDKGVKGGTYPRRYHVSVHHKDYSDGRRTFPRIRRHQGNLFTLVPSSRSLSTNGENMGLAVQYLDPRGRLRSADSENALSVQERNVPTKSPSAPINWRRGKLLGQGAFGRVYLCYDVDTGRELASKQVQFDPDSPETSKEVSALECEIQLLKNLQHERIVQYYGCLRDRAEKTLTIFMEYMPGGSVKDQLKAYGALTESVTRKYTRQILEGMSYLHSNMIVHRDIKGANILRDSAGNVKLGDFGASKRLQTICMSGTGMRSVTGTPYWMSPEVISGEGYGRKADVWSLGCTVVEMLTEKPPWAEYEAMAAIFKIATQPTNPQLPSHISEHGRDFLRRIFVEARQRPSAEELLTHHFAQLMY
# [7] = biological target: T2, Serine/threonine-protein kinase Nek1 (Homo sapiens) (UniProt Q96PY6); experiment: Inhibition of NEK1 (unknown origin) at 1 uM relative to control
# T2 sequence (whole entry): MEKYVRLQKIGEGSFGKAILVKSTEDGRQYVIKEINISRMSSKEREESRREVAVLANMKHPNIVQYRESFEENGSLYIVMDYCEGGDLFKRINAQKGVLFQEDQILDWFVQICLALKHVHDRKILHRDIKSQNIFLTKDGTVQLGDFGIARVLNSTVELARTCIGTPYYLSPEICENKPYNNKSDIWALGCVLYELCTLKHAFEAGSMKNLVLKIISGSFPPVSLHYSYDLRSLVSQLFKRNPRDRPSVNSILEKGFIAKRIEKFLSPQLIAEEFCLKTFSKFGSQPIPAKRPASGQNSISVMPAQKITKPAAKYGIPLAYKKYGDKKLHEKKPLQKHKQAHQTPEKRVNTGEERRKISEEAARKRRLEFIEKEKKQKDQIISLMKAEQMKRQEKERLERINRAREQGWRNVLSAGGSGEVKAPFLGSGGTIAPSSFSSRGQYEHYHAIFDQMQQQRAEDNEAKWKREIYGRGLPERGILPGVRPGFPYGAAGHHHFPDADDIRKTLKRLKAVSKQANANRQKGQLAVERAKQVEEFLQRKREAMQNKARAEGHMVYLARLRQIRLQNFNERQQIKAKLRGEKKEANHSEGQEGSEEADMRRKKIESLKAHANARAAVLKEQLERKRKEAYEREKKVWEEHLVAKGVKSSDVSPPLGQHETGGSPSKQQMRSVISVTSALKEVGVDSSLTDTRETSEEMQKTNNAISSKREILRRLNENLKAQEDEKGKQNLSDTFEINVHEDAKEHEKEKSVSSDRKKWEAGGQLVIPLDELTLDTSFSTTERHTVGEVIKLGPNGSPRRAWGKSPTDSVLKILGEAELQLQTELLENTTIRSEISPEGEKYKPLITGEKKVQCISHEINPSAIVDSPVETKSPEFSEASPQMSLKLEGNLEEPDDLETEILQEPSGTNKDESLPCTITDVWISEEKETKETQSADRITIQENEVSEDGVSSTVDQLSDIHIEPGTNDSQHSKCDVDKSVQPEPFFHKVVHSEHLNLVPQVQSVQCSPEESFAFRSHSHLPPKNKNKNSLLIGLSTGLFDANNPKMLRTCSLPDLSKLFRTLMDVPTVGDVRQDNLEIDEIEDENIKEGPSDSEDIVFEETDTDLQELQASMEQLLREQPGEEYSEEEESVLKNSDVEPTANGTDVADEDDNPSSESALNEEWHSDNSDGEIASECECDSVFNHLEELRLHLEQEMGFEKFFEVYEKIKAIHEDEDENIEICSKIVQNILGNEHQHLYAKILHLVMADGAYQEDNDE
# [8] = test system: Epidermal growth factor receptor (Homo sapiens), P00533 [UNDEFINED MUTATION]; experiment: Inhibition of EGFR d747-749/A750P mutant (unknown origin) at 1 uM relative to control
# [9] = Intrinsic clearance in mouse microsomes; assay type: ADME, Microsome
# [10] = AUC in mouse plasma at 80 mg/kg, po administered once daily for 28 days; assay type: ADME, organism-based; parameters: time 28 day, dose 80 mg/kg
# [11] = biological target: T3, Serine/threonine-protein kinase PLK2 (Homo sapiens, UniProt Q9NYY3); experiment: Inhibition of PLK2 (unknown origin)
# Target sequence in this assay (Q9NYY3 whole entry): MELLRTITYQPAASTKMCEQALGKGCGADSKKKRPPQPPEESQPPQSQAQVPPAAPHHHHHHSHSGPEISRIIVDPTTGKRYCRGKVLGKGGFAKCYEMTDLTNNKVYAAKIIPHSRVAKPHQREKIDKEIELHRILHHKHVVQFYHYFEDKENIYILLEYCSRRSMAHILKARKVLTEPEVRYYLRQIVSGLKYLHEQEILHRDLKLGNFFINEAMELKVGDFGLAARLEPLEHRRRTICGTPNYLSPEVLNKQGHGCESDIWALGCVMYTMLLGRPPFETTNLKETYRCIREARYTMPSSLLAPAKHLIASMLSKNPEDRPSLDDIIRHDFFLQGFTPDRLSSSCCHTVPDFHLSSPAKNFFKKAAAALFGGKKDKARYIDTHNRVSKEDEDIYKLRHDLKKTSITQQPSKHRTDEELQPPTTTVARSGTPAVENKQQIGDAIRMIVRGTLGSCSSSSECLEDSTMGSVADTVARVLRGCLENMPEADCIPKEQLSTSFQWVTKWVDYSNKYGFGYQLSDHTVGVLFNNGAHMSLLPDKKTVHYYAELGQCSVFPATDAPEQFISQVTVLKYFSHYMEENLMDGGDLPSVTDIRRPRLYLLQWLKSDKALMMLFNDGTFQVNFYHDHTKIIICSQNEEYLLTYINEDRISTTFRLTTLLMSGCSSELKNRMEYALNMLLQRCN
# [12] = Cmax in Beagle dog at 10 mg/kg, po measured upto 24 hrs by LC-MS/MS analysis; assay type: ADME, organism-based, Canis lupus familiaris; parameters: route oral, dose 10 mg/kg, time <=24; conditions: in vivo
# [13] = Thermodynamic solubility of compound; assay type: physicochemical; conditions: read-out: Therm_solubility
# [14] = AUC(0 to 24 hrs) in mouse at 60 mg/kg, po; assay type: ADME, organism-based; parameters: time < 24 hr, route oral, dose 60 mg/kg; conditions: in vivo
# [15] = Intrinsic clearance in human hepatocytes; assay type: ADME, cell-based, Hepatocyte; conditions: read-out: CLH
# [16] = Plasma protein binding in human; assay type: ADME, cell-free; conditions: read-out: PPB (converted)
# [17] = Permeability of the compound across apical to basolateral side in human Caco-2 cells; assay type: ADME, cell-based; conditions: read-out: permeability
# Cytochrome P450 3A4 = Cytochrome P450 3A4 (Homo sapiens, UniProt P08684); experiment: Inhibition of CYP3A4 (unknown origin); assay type: ADME
# Chain of Cytochrome P450 3A4 (P08684 whole entry): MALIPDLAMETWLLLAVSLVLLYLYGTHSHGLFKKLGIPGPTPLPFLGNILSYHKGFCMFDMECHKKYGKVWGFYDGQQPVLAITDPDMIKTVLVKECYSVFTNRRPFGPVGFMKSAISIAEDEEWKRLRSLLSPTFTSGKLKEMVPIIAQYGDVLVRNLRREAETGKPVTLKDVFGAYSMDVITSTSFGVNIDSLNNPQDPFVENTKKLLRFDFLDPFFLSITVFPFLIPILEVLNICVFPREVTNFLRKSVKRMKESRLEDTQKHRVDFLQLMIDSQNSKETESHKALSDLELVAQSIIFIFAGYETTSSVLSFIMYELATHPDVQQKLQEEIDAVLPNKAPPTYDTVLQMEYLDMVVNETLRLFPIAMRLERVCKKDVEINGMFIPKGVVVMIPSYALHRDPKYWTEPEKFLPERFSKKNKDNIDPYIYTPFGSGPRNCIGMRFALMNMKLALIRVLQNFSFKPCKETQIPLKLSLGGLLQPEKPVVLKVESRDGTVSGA
# [18] = biological target: T3, Serine/threonine-protein kinase PLK2; experiment: Inhibition of PLK2 (unknown origin) at 1 uM relative to control
# Target sequence in this assay (Q9NYY3 whole entry, looked up): as the sequence (Q9NYY3 whole entry) above
# [19] = Half life in Beagle dog at 3 mg/kg, iv measured upto 24 hrs by LC-MS/MS analysis; assay type: ADME, organism-based, Canis lupus familiaris; conditions: in vivo
# [20] = AUC(0 to 24 hrs) in rat at 60 mg/kg, po; assay type: ADME, organism-based; parameters: time < 24 hr, route oral, dose 60 mg/kg; conditions: in vivo
# [21] = biological target: Serine/threonine-protein kinase PLK3 (Homo sapiens, UniProt Q9H4B4); experiment: Inhibition of PLK3 (unknown origin)
# Chain of Serine/threonine-protein kinase PLK3 (Q9H4B4 whole entry): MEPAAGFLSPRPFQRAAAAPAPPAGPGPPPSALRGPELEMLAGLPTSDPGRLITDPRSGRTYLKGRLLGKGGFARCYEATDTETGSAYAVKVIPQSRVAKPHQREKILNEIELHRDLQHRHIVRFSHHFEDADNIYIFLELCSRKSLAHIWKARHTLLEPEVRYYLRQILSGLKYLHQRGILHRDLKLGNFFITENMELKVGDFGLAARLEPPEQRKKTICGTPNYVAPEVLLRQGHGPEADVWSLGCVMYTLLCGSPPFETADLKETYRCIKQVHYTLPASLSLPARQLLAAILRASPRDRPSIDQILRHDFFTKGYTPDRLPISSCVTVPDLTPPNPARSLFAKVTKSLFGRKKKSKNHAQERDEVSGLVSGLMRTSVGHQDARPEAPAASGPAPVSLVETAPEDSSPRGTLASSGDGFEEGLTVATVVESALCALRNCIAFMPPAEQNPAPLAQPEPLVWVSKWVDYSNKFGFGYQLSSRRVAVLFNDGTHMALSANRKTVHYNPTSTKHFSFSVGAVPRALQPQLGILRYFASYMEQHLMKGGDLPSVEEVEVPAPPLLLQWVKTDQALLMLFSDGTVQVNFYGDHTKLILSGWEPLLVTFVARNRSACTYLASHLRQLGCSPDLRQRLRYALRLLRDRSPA
# A-427 = experiment: Antiproliferative activity against human A-427 cells assessed as reduction in cell viability after 3 days by CellTiter-Glo assay; assay type: functional, cell-based; conditions: A-427, 72 h
# Chain of Wee1-like protein kinase (P30291 whole entry): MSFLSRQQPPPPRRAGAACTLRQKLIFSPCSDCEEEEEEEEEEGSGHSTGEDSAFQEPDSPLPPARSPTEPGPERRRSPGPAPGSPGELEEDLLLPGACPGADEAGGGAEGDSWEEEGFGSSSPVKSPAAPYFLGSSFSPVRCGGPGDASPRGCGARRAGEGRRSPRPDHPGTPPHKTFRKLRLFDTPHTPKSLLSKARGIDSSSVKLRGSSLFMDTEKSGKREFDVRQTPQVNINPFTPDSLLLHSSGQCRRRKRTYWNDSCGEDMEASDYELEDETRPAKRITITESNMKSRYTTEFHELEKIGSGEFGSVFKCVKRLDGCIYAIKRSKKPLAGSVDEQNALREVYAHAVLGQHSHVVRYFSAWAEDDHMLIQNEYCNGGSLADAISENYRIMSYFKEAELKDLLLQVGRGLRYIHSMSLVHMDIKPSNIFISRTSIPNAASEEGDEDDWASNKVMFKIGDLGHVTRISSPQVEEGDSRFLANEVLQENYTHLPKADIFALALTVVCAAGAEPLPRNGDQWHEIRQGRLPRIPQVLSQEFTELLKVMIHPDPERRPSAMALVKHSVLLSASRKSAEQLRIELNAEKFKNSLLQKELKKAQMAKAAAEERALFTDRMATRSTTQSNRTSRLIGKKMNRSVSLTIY
# Chain of Serine/threonine-protein kinase PLK1 (P53350 whole entry): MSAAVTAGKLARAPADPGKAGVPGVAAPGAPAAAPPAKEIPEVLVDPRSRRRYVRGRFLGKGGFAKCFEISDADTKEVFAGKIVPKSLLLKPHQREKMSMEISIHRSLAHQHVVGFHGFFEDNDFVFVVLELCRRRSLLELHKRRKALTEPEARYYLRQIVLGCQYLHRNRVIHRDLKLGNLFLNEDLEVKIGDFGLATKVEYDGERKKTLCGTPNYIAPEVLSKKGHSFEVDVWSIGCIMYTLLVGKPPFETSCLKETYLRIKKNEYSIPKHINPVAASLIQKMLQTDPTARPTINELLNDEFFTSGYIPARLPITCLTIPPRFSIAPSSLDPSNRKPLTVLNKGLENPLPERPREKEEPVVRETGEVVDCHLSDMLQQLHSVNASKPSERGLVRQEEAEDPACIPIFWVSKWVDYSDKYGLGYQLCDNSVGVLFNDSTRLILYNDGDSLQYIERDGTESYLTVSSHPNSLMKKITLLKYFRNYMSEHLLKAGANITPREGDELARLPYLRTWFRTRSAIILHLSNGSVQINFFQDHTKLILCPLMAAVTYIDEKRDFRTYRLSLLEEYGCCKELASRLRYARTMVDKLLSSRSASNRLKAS
smiles,measurement,setting,value
C=CCn1c(=O)c2cnc(Nc3ccc(N4CCN(C)CC4)cc3)nc2n1-c1ccc2c(n1)C(O)(CC)CC2 (racemic),IC50,Wee1-like protein kinase,3.9 nM
same,IC50,[1],227 nM
same,inhibition,[2],75%
same,Papp B→A,[3],25.5 ×10⁻⁶ cm/s
same,CLint scaled,[4],40 mL/min/kg
same,IC50,[5],60 nM
same,inhibition,[6],75%
same,inhibition,[7],75%
same,inhibition,[8],> 90%
same,CLint scaled,[9],74 mL/min/kg
same,AUC at 672 h,[10],45 µM·h
same,IC50,[11],40 nM
same,Cmax,[12],2100 nM
same,solubility thermodynamic,[13],2130 µM
same,AUC(0-t) at 24 h,[14],32 µM·h
same,CLint scaled,[15],< 18 mL/min/kg
same,fraction unbound,[16],0.34
same,Papp A→B,[17],3.6 ×10⁻⁶ cm/s
same,IC50,Cytochrome P450 3A4,7000 nM
same,inhibition,[18],> 90%
same,half-life,[19],1.4 h
same,AUC(0-t) at 24 h,[20],27 µM·h
same,IC50,[21],70 nM
same,IC50,A-427,75 nM
